Reference: PubChem BioAssay (NCI)
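Protocol summary: plate cells (96-well), add compound at 5 concentrations, incubate 48 h, interpolate endpoints linearly. At the GI50, growth is halved. TGI denotes the concentration required for complete inhibition of growth.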

Tests used:
Test in all cases: growth of human tumour cells (NCI), 48 h
A498 renal = test system: A498 renal
M14 melanoma = test system: M14 melanoma
MALME-3M melanoma = test system: MALME-3M melanoma
MCF7 breast = test system: MCF7 breast
NCI-H522 lung = test system: NCI-H522 lung
OVCAR-4 ovarian = test system: OVCAR-4 ovarian
SF-295 CNS = test system: SF-295 CNS
TK-10 renal = test system: TK-10 renal
UACC-257 melanoma = test system: UACC-257 melanoma
UACC-62 melanoma = test system: UACC-62 melanoma

SMILES	TGI (A498 renal) [µM]	TGI (M14 melanoma) [µM]	TGI (MALME-3M melanoma) [µM]	TGI (MCF7 breast) [µM]	TGI (NCI-H522 lung) [µM]	TGI (OVCAR-4 ovarian) [µM]	TGI (SF-295 CNS) [µM]	TGI (TK-10 renal) [µM]	TGI (UACC-257 melanoma) [µM]	TGI (UACC-62 melanoma) [µM]	GI50 (A498 renal) [µM]	GI50 (MALME-3M melanoma) [µM]	GI50 (MCF7 breast) [µM]	GI50 (NCI-H522 lung) [µM]	GI50 (OVCAR-4 ovarian) [µM]	GI50 (SF-295 CNS) [µM]	GI50 (TK-10 renal) [µM]	GI50 (UACC-257 melanoma) [µM]	GI50 (UACC-62 melanoma) [µM]
Cc1cccnc1/N=C/c1c(O)n(C)c(=O)[nH]c1=O	> 100	> 100	87.7	> 100	> 100	> 100	> 100	> 100	> 100	> 100									
c1csc(-c2cc(-c3cccs3)c(-c3cccs3)s2)c1	> 100	> 100	> 100	66.8	> 100	> 100	> 100	> 100	> 100	> 100									
O=C1[C@@H]2[C@@H](c3ccccc3)[C@]2(Cl)C(=O)[C@H]2[C@H](c3ccccc3)[C@@]12Cl	> 100	> 100	> 100	> 100	> 100	> 100	> 100	> 100	> 100	> 100									
N#CCCN(CCC#N)c1ccc(/C=C2\N=C(c3ccccc3)N(NC(N)=S)C2=O)cc1	> 100	> 100	> 100	> 100		> 100	> 100	> 100	> 100	> 100									
CCOC(=O)Cc1nc2sc(S(N)(=O)=O)nn2c1Br	65.6	33.8	81.7	> 100	39.5		> 100	> 100	> 100	36.1									
CCOC(=O)c1c(N2CCCC2)[nH]c(=O)c(C(c2ccco2)c2c(O)c(C(=O)OCC)c(N3CCCC3)[nH]c2=O)c1O	> 100	> 100	> 100	> 100	> 100	> 100	> 100	> 100	> 100	> 100									
O=C1CCC(=O)N1n1c(Cc2ccc(Cl)cc2)n[nH]c1=O	> 100	> 100	> 100	> 100	> 100	> 100	> 100	> 100	> 100	> 100									
Cn1c2ccccc2c2c(=O)[nH]c(=O)[nH]c21	> 100	> 100	> 100	> 100	> 100		> 100	> 100	> 100	> 100									
O=C1/C(=C/c2ccc(Cl)cc2)N=C(c2ccccc2)N1CCc1cccs1	> 100		> 100	> 100	74	> 100	> 100	> 100	> 100	63.2	16.7	35.1	18.4	15.3	7.72	17.7	27.9	36	13.8
N#Cc1c(N)sc2c1-c1ccccc1OC2	> 100	> 100	> 100	> 100		88		> 100	> 100	> 100									
